A word on the IC50: it is the concentration at which inhibition is half-maximal.

The results in this text go back to ChEMBL document CHEMBL1138860, “Design, synthesis, and evaluation of a potent, cell-permeable, conformationally constrained second mitochondria derived activator of caspase (Smac) mimetic” (J Med Chem, 2006).

The subject of test [1] is MDA-MB-231. The test can be described thus: Inhibition of MDA-MB-231 cell growth by WST assay. The test is classed as functional, cell-based. The note with it: Homo sapiens.
Test [2] concerns MDA-MB-231. The test can be described thus: Induction of cell death in MDA-MB-231 by Trypan blue exclusion assay at 1 uM 4 days. The test is classed as functional, Homo sapiens.
In test [3] the test system is MDA-MB-231. The test can be described thus: Induction of cell death in MDA-MB-231 by Trypan blue exclusion assay at 100 nM after 4 days. The test is classed as functional, Homo sapiens.

Structures are written as SMILES.

As to `CC[C@H](NC)C(=O)N[C@H]1CCC[C@H]2CC[C@@H](C(=O)NC(c3ccccc3)c3ccccc3)N2C1=O`, half-maximal inhibition in test [1] (IC50) required 0.1 µM. Also, the results for the Activity in test [2] and in test [3] were 80% and 40%, respectively.

`CC[C@@H](C(=O)N[C@H]1CCC[C@H]2CC[C@@H](C(=O)NC(c3ccccc3)c3ccccc3)N2C1=O)N(C)C` showed an IC50 in test [1] of 3 µM.

`C[C@H](O)C(=O)N[C@H]1CCC[C@H]2CC[C@@H](C(=O)NC(c3ccccc3)c3ccccc3)N2C1=O` displayed an IC50 in test [1] of 65 µM.

For `CC[C@H](N)C(=O)N[C@H]1CCC[C@H]2CC[C@@H](C(=O)NC(c3ccccc3)c3ccccc3)N2C1=O`, 50 µM corresponded to half-maximal inhibition in test [1] (IC50).
